According to US11912706B2, “Crystal forms of a POL1 inhibitor” (PIMERA, INC., priority 2017, dated 2024):
Converted amounts (≈) assume the structure as drawn. Blank lines part the entries; values can stand above or below the compound they belong to.

Assays:
Format in all cases: physicochemical
[1] = Rapid solvent solubility screen; settings: thermodynamic from solid
Procedure: Thirteen solvents were chosen for a rapid solvent solubility screen (See, Table 1). 10 mg of multiphasic Compound (I) prepared according to Example 1 was placed in each of 13 vials and 5 volume aliquots of the appropriate solvent systems were added to each vial.
Between each addition, the mixture was checked for dissolution and if no dissolution was apparent, the mixture was heated to 40° C. and checked again. This procedure was continued until dissolution was observed or until 100 volumes of solvent had been added.

[2] = Gravimetric Vapor Sorption (GVS); settings: up to 90% relative humidity (RH)
Procedure: Approximately 10-20 mg of sample was placed into a mesh vapor sorption balance pan and loaded into an IGAsorp Moisture Sorption Analyzer balance by Hiden Analytical.
The sample was subjected to a ramping profile from 40% to 90% relative humidity (RH) at 10% increments, maintaining the sample at each step until a stable weight had been achieved (98% step completion). After completion of the sorption cycle, the sample was dried using the same procedure to 0% RH, and finally taken back to the starting point of 40% RH. The weight change during the sorption/desorption cycles was plotted, allowing for the hygroscopic nature of the sample to be determined.

[3] = 7 day stability test of crystal forms (PXRD post storage); settings: 7-day storage
Procedure: 10 mg of Forms 1, 2, 3, 4 and 5 were weighed out into separate vials.
[…] After completion, PXRD analysis was performed on each of these samples.

[4] = Further stability studies of Form 1 (2 and 4 weeks; PXRD, NMR, HPLC)
Procedure: 10 mg of Form 1 was weighed out into each of 12 vials. […] vials were placed in each storage condition of: (1) 40° C. with an open cap; (2) 75% RH with an open cap; (3) 50° C. with a closed cap; and (4) room temperature with a closed cap.
Two (2) vials were extracted at each time point of 2 and 4 weeks and PXRD, NMR and HPLC analysis was performed.

[5] = Competitive slurrying of Form 1 and Form 5; settings: dichloromethane, heptane, methanol; ambient, 60° C. or 35° C.; 24 hours
Procedure: Saturated solutions of Compound (I) in multiphasic form were created in two solutions each dichloromethane, heptane and methanol.
10 mg of Form 1 and Form 5 were added to each vial. […] was stirred at ambient conditions for a period of 24 hours, while the other heptane and methanol vials were stirred at 60° C. for 24 hours.
The remaining dichloromethane vial was stirred at 35° C. for 24 hours. The resulting material was analyzed by PXRD, before being dried with a vacuum pump overnight to dry before DSC analysis of samples.

[6] = ambient conditions (closed vial)

Form stability after storage (PXRD) ([3]; 40° C./75% RH (closed vial)): transitions to Form 1 | Form stability after storage (PXRD) [3, 6]: stable and maintains its form
SMILES: CNC(=O)c1cc2ccc(N3CCCN(C)CC3)nc2n2c1nc1ccccc12 [Form 3, N-methyl-2-(4-methyl-1,4-diazepan-1-yl)benzo[4,5]imidazo[1,2-a][1,8]naphthyridine-6-carbaxomide]

Form stability after storage (PXRD) ([3]; 40° C./75% RH (closed vial)): transitions to Form 1 | Form stability after storage (PXRD) [3, 6]: stable and maintains its form
SMILES: CNC(=O)c1cc2ccc(N3CCCN(C)CC3)nc2n2c1nc1ccccc12 [Form 4, N-methyl-2-(4-methyl-1,4-diazepan-1-yl)benzo[4,5]imidazo[1,2-a][1,8]naphthyridine-6-carbaxomide]

Form transition in competitive slurry (PXRD of damp slurry residue) [5]: transition from Form 5 towards Form 1 | Form stability after storage (PXRD) ([3]; 40° C./75% RH (closed vial)): stable and maintains its form | Form stability after storage (PXRD) [3, 6]: stable and maintains its form
SMILES: CNC(=O)c1cc2ccc(N3CCCN(C)CC3)nc2n2c1nc1ccccc12 [Form 5, N-methyl-2-(4-methyl-1,4-diazepan-1-yl)benzo[4,5]imidazo[1,2-a][1,8]naphthyridine-6-carbaxomide]

Second part, the compound before the results:

SMILES: CNC(=O)c1cc2ccc(N3CCCN(C)CC3)nc2n2c1nc1ccccc12 [Compound (I), N-methyl-2-(4-methyl-1,4-diazepan-1-yl)benzo[4,5]imidazo[1,2-a][1,8]naphthyridine-6-carbaxomide]
solubility ([1]; acetonitrile, 40 °C, organic solvent or mixture): < 10000 µg/mL | solubility ([1]; dichloromethane, organic solvent or mixture): 200000 µg/mL (≈ 515 mM) | solubility ([1]; dimethylformamide, 40 °C, organic solvent or mixture): < 10000 µg/mL | solubility ([1]; ethanol, 40 °C, organic solvent or mixture): < 10000 µg/mL | solubility ([1]; ethyl acetate, 40 °C, organic solvent or mixture): < 10000 µg/mL | solubility ([1]; heptane, 40 °C, organic solvent or mixture): < 10000 µg/mL | solubility ([1]; majority of the thirteen solvents assessed, 40 °C, organic solvent or mixture, majority of solvents assessed): < 10000 µg/mL | solubility ([1]; methanol, organic solvent or mixture): 12500 µg/mL (≈ 32.2 mM) | solubility ([1]; organic solvent or mixture, Acetone, up to 100 volumes, heated to 40° C. if no dissolution): < 10000 µg/mL | solubility ([1]; propan-2-ol, 40 °C, organic solvent or mixture): < 10000 µg/mL | solubility ([1]; t-butylmethyl ether, 40 °C, organic solvent or mixture): < 10000 µg/mL | solubility ([1]; tetrahydrofuran, 40 °C, organic solvent or mixture): < 10000 µg/mL | solubility ([1]; toluene, 40 °C, organic solvent or mixture): < 10000 µg/mL | solubility ([1]; water, 40 °C): < 10000 µg/mL | hygroscopic nature (GVS) [2]: non-hygroscopic | mass uptake (GVS) [2]: 0.8%

SMILES: CNC(=O)c1cc2ccc(N3CCCN(C)CC3)nc2n2c1nc1ccccc12 [Form 1, N-methyl-2-(4-methyl-1,4-diazepan-1-yl)benzo[4,5]imidazo[1,2-a][1,8]naphthyridine-6-carbaxomide]
Form stability after storage (PXRD) ([3]; 40° C./75% RH (closed vial)): stable and maintains its form | Form stability after storage (PXRD) [3, 6]: stable and maintains its form | Structural integrity post stability testing (NMR) ([4]; 2 and 4 weeks, 40° C./75% RH, 50° C., room temperature): maintains its structural integrity and does not degrade | Form stability after storage (PXRD) ([4]; 2 weeks and 4 weeks, 40° C./75% RH, 50° C. and RT): stable and maintains its form | % Purity (HPLC) post stability studies ([4]; 40° C./75% Relative Humidity, 2 weeks): 99.3% | % Purity (HPLC) post stability studies ([4]; 40° C./75% Relative Humidity, 4 weeks): 99.6% | % Purity (HPLC) post stability studies ([4]; 50° C./Ambient % RH, 2 weeks): 99.4% | % Purity (HPLC) post stability studies ([4]; 50° C./Ambient % RH, 4 weeks): 99.7% | % Purity (HPLC) post stability studies ([4]; Room Temperature, 2 weeks): 99.2% | % Purity (HPLC) post stability studies ([4]; Room Temperature, 4 weeks): 99.1%

SMILES: CNC(=O)c1cc2ccc(N3CCCN(C)CC3)nc2n2c1nc1ccccc12 [Form 2, N-methyl-2-(4-methyl-1,4-diazepan-1-yl)benzo[4,5]imidazo[1,2-a][1,8]naphthyridine-6-carbaxomide]
Form stability after storage (PXRD) ([3]; 40° C./75% RH (closed vial)): transitions to Form 1 | Form stability after storage (PXRD) [3, 6]: stable and maintains its form
